Results from patent US8106059B2, “Substituted pyrazines that inhibit protease cathepsin S and HCV replication” (ViroBay, Inc., priority 2007, dated 2012).
Like-named read-outs stand apart in the source and are kept apart here.

Assays:
[1] = target: recombinant human cathepsin S (Homo sapiens, UniProt P25774); experiment: Cathepsin S enzyme activity assay; assay type: biochemical; conditions: 10 uM Z-Leu-Arg-AMC, pH 4.5, 25° C.
Description: The cysteine protease inhibitor E-64 is assayed in parallel as a positive control.
Human recombinant cathepsin S is incubated with compounds or vehicle (final concentration=1% DMSO vehicle) in the presence of peptide substrate which is 10 uM Z-Leu-Arg-AMC. Compounds are preincubated with the enzyme for 15 minutes at 25° C. and the reaction started by the addition of substrate. Incubation with substrate proceeds for 30 minutes at 25° C. Incubation buffer is 20 mM CH3COONa, pH 4.5, 2.5 mM DTT, 0.05 M NaCl. Cathepsin S-mediated substrate cleavage is quantified using spectofluorimetric quantitation of AMC.

[2] = tested on: HCV replicon-containing cells (Huh7/Clone A); experiment: HCV replicon assay; assay type: cell-based, Hepatitis C virus; conditions: at 25 μM, 48 hours
Excerpt: The HCV replicon assay is a cell-culture system that mimics in vivo HCV replication and provides a system to study HCV replication in vitro. It was created by transfecting cloned viral RNA derived from a consensus HCV genomic sequence into human Huh7 hepatoma cells that are semi-permissive for viral RNA production (Lohmann V., Korner F., Koch J.-O., Herian U., Theilmann L. and Bartenschlager R. (1999). Replication of subgenomic Hepatitis C virus RNAs in a hepatoma cell line. Science 285, 110-113 and Blight K. J., Kolykhalov A. A. and Rice C. M. (2000). Efficient initiation of HCV RNA Replication in cell culture. Science 290, […]). These transfected cell lines contain a subgenomic HCV RNA genome that includes (1) the HCV 5′NTR fused to 12 amino acids of the capsid coding region, (2) the neomycin phosphotransferase gene (Neo) as a selectable marker, (3) the internal ribosome entry site (IRES) from encephalomyocarditis virus (EMCV) that directs translation of HCV non-structural proteins (variously NS2 or NS3 to NS5B), and (4) the 3′ NTR. Replicon-containing cells autonomously and persistently replicate HCV RNA that can be measured quantitatively by real-time qPCR. Therefore, the replicon system facilitates quantitative assessment of anti-viral activity by monitoring changes in HCV RNA replication in a cell-based assay.
HCV replicon-containing cells (Huh7/Clone A) were routinely maintained in Clone A growth medium (DMEM medium [Invitrogen], supplemented with 10% Fetal Bovine Serum, 1% Non Essential Amino Acids and 1 g/L G418). Test compounds were dissolved in dimethylsulfoxide (DMSO) to make 200× stock solutions for all doses prior to treatment.
For the HCV replicon assay, Huh7/Clone A cells were trypsinized from culture flasks, seeded in 1 ml of Clone A growth medium without G418 at 4×10^4 cells per well in 24-well plates and incubated at 37° C. in a humidified CO2 (5%) incubator overnight. Following overnight incubation, compound solutions were added into wells in the same volume (5 μl of 200× compound stock per well) to give a final DMSO concentration of 0.5%. Three wells on each plate supplemented with 5 μl of DMSO served as untreated controls. […]
Total RNA eluted in 130 μl of RNase-free dH2O was quantitated by the RiboGreen Assay according to the supplier's protocol (Molecular Probe). […] RNA samples in the black microplate were mixed with 95 μl of diluted RiboGreen reagent (1:250 dilution in TE buffer) and sample fluorescence was measured using a fluorescence microplate reader at standard fluorescein wavelengths (excitation ˜480 nm, emission ˜520 nm). […]
TaqMan quantitative PCR (RT-qPCR) was used to quantitate the amount of HCV replicon RNA in each sample. […]

[3] = recombinant human cathepsin S, read-out: Cathepsin S IC50
[4] = Cathepsin S IC50, recombinant human cathepsin S

Chain of recombinant human cathepsin S (P25774 115-331): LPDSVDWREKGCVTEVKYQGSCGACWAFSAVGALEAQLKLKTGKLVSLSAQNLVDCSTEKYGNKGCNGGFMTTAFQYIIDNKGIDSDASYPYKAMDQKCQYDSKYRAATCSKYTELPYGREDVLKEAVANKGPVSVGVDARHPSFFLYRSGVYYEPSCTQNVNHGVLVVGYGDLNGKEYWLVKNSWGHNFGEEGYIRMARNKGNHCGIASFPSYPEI

| SMILES | IC50 [1, 3] [nM] | inhibition of HCV replicon RNA [2] [%] | IC50 [1, 4] [nM] |
| --- | --- | --- | --- |
| CCC[C@H](NC(=O)[C@@H]1[C@H]2CCC[C@H]2CN1C(=O)[C@@H](NC(C(NC(=O)c1cnccn1)C1CCCCC1)C(F)(F)F)C(C)(C)C)C(=O)C(=O)NC1CC1 (single isomer, unassigned) [Formula I isomer A] | 4.1 | 41 | – |
| CCC[C@H](NC(=O)[C@@H]1[C@H]2CCC[C@H]2CN1C(=O)[C@@H](NC(C(NC(=O)c1cnccn1)C1CCCCC1)C(F)(F)F)C(C)(C)C)C(=O)C(=O)NC1CC1 (single isomer, unassigned) [Formula I isomer B] | – | 33 | 0.6 |
| CCC[C@H](NC(=O)[C@@H]1[C@H]2CCC[C@H]2CN1C(=O)[C@@H](NC(C(NC(=O)c1cnccn1)C1CCCCC1)C(F)(F)F)C(C)(C)C)C(=O)C(=O)NC1CC1 (single isomer, unassigned) [Formula I isomer C] | – | 34 | 2 |
| CCC[C@H](NC(=O)[C@@H]1[C@H]2CCC[C@H]2CN1C(=O)[C@@H](NC(C(NC(=O)c1cnccn1)C1CCCCC1)C(F)(F)F)C(C)(C)C)C(=O)C(=O)NC1CC1 (single isomer, unassigned) [Formula I isomer D] | – | 29 | 0.6 |
| CCC[C@H](NC(=O)[C@@H]1[C@H]2CCC[C@H]2CN1C(=O)[C@@H](NC(=O)[C@@H](NC(c1cnccn1)C(F)(F)F)C1CCCCC1)C(C)(C)C)C(=O)C(=O)NC1CC1 (single isomer, unassigned) [Formula I isomer E] | 1.8 | – | – |
| CCC[C@H](NC(=O)[C@@H]1[C@H]2CCC[C@H]2CN1C(=O)[C@@H](NC(=O)[C@@H](NC(c1cnccn1)C(F)(F)F)C1CCCCC1)C(C)(C)C)C(=O)C(=O)NC1CC1 (single isomer, unassigned) [Formula I isomer F] | 1.4 | – | – |
